Source: patent US8969554B2, “6-acyl-1,2,4-triazine-3,5-dione derivative and herbicides” (Kumiai Chemical Industry Co., Ltd., priority 2010, dated 2015)

Experiments:
Format in all cases: in vivo
Parameters in all cases: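 index 0 to 10 in 10% steps of herbicidal effect with 10 meaning complete death and 0 below 10%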
Monochoria vaginalis = experiment: Herbicidal activity by paddy field soil treatment (Test Example 1); details: 1000 g of effective component per hectare, evaluated on day 21 after the treatment, criteria of Table 72
Experimental: (§1) Test for Determining Herbicidal Activity by Paddy Field Soil Treatment A 100 cm^2 wide plastic pot was filled with a paddy field soil and, after watering and shuffling, seeds of each of Echinochloa oryzicola, Monochoria vaginalis, and Scirpus juncoides Rocxb. were sowed and watered to a depth of 3 cm. On the next day, the wettable powder obtained in view of Formulation example 1 was diluted with water and applied on water surface. The application amount was 1000 g of effective component per hectare. After that, the plants were cultivated in a greenhouse, and on day 21 after the treatment, evaluation was made by the criteria of Table 72 for determining the herbicidal effects. [table]

Scirpus juncoides Rocxb. = experiment: as above; details: applied on water surface, 1000 g of effective component per hectare, day 21 after the treatment
Experimental: as §1

Echinochloa oryzicola = experiment: as above; details: 1000 g of effective component per hectare, evaluated on day 21 after the treatment, criteria of Table 72
Experimental: as §1

Indian millet [1] = experiment: Herbicidal activity by field foliage treatment (Test example 3); details: 1000 g effective component per hectare, day 14 after the treatment
Experimental: (§2) [table] Test for Determining Herbicidal Activity by Field Foliage Treatment A 80 cm^2 wide plastic pot was filled with a field soil and seeds of each of Indian millet and A. retroflexus were sowed and then incubated for 2 weeks in a green house. The wettable powder produced with reference to the Formulation example 1 was diluted water, and applied from the air to entire body of the plant as foliage treatment by using a small sprayer in an amount of 1000 liters per hectare so that the effective component is 1000 g per hectare. After that, the plants were cultivated in a greenhouse, and on day 14 after the treatment, evaluation was made by the criteria described in Table 72 for determining the herbicidal effects.

A. retroflexus [2] = experiment: as above; details: 1000 g effective component per hectare, day 14 after the treatment
Experimental: as §2

Echinochloa crus-galli [3] = experiment: Herbicidal activity by field soil treatment (Test example 2); details: 1000 g effective component per hectare, day 21 after the treatment
Experimental: (§3) [table] Test for Determining Herbicidal Activity by Field Soil Treatment A 80 cm^2 wide plastic pot was filled with a field soil and seeds of each of Echinochloa crus-galli, foxtail, Indian millet, and A. retroflexus were sowed and then covered with soil. The wettable powder produced with reference to the Formulation example 1 was diluted water, and applied on the soil surface by using a small sprayer in an amount of 1000 liters per hectare so that the effective component is 1000 g per hectare. After that, the plants were cultivated in a greenhouse, and on day 21 after the treatment, evaluation was made by the criteria described in Table 72 for determining the herbicidal effects.

Indian millet [4] = experiment: as above; details: 1000 g effective component per hectare, day 21 after the treatment
Experimental: as §3

A. retroflexus [5] = experiment: as above; details: 1000 g effective component per hectare, day 21 after the treatment
Experimental: as §3

Echinochloa crus-galli [6] = experiment: Herbicidal activity by field foliage treatment (Test example 3); details: 1000 g effective component per hectare, day 14 after the treatment
Experimental: as §2, with “Test example 3” for “[table]”

Compound | Herbicidal effects index number, Monochoria vaginalis (Monochoria vaginalis) | herbicidal effect index, S. juncoides Rocxb. (Scirpus juncoides Rocxb.) | Herbicidal effects index number, Echinochloa oryzicola (Echinochloa oryzicola) | herbicidal effect index, Abutilon theophrasti (Indian millet [1]) | herbicidal effect index, Amaranthus retroflexus (A. retroflexus [2]) | herbicidal effect index, Echinochloa crus-galli (Echinochloa crus-galli [3]) | herbicidal effect index, Abutilon theophrasti (Indian millet [4]) | herbicidal effect index, Amaranthus retroflexus (A. retroflexus [5]) | herbicidal effect index, Echinochloa crus-galli (Echinochloa crus-galli [6])
CN(c1ccc(F)cc1)n1c(=O)c(C(=O)C2=C(O)CCCC2=O)nn(C)c1=O [I-476] | 10 | 10 | 10 | 9 | 10 | 7 | 10 | 10 | 7
COc1cc(Cl)cc(-n2c(=O)c(C(=O)C3=C(O)CCCC3=O)nn(C)c2=O)c1 [I-120] | 10 | 10 | 8 | 9 | 10 | 8 | 9 | 10 | 9
Cn1nc(C(=O)C2=C(O)CCCC2=O)c(=O)n(-c2ccc(Cl)cc2)c1=O [I-53] | 7 | 10 | 10 | 10 | 10 | 8 | 10 | 10 | 8
CCn1nc(C(=O)C2=C(O)CCCC2=O)c(=O)n(-c2ccccc2)c1=O [I-259] | 10 | 10 | 10 | 10 | 10 | 10 | 8 | 10 | 10
COc1cc(OC)nc(-n2c(=O)c(C(=O)C3=C(O)CCCC3=O)nn(C)c2=O)n1 [I-273] | 9 | 10 | 9 | 9 | 10 | 9 | 7 | 10 | 10
COc1cccc(-n2c(=O)c(C(=O)C3=C(O)CCCC3=O)nn(C)c2=O)c1 [I-61] | 10 | 10 | 8 | 10 | 10 | 8 | 10 | 10 | 9
Cn1nc(C(=O)C2=C(O)CCCC2=O)c(=O)n(-c2ccc(C(F)(F)F)cc2)c1=O [I-65] | 10 | 10 | 10 | 10 | 10 | 10 | 10 | 10 | 8
Cn1nc(C(=O)C2=C(O)CCCC2=O)c(=O)n(CC2CCCO2)c1=O (stereo not drawn) [I-339] | 10 | 10 | 10 | 10 | 10 | 8 | 10 | 10 | 9
Cc1cc(F)cc(-n2c(=O)c(C(=O)C3=C(O)CCCC3=O)nn(C)c2=O)c1 [I-106] | 10 | 10 | 10 | 9 | 10 | 10 | 10 | 10 | 10
CCON=C(C)Cn1c(=O)c(C(=O)O)nn(C)c1=O [V-371] | 10 | 9 | 10 | 9 | 10 | 9 | 10 | 10 | 8
COc1ccc(-n2c(=O)c(C(=O)C3=C(O)CCCC3=O)nn(C)c2=O)cn1 [I-287] | 10 | 10 | 10 | 9 | 10 | 10 | 9 | 10 | 8
CN(c1ccc(F)cc1)n1c(=O)c(C(=O)O)nn(C)c1=O [V-370] | 10 | 10 | 10 | 9 | 10 | 7 | 10 | 10 | 7
Cc1cccc(F)c1-n1c(=O)c(C(=O)C2=C(O)CCCC2=O)nn(C)c1=O [I-110] | 10 | 10 | 10 | 9 | 9 | 7 | 10 | 10 | 9
Cc1cc(-n2c(=O)c(C(=O)C3=C(O)CCCC3=O)nn(C)c2=O)ccc1Cl [I-135] | 10 | 10 | 10 | 10 | 10 | 9 | 9 | 10 | 10
Cc1ccc(-n2c(=O)c(C(=O)C3=C(O)CCCC3=O)nn(C)c2=O)cc1Cl [I-125] | 10 | 10 | 10 | 10 | 10 | 7 | 8 | 10 | 10
Cc1cccc(-n2c(=O)c(C(=O)C3=C(O)CCCC3=O)nn(C)c2=O)n1 [I-279] | 8 | 10 | 8 | 10 | 10 | 7 | 10 | 10 | 9
